Structures can show the parent of a compound that is named as a salt. Where two headings read alike, the source gives them in different places.
Assays:
rat = assay: Toxicity, lowest lethal dose (LLD), rat
acetylcholine esterase = acetylcholine esterase (Homo sapiens, UniProt P22303); assay: biochemical
Source text: The determination of the acetylcholine esterase inhibition was effected according to the method of Ellmann et al., Biochem. Pharmacol. 7 (1961) 88, and/or according to the method of Johnson et al., Analytical Biochemistry 64 (1975), 229.

mouse = assay: Toxicity, lowest lethal dose (LLD), mouse; assay type: in vivo; conditions: po mouse
M1 = assay: Muscarinic M1 receptor binding, [3H]-Pirenzepine
Source text: (§1) Furthermore, the compounds of formula I have affinity for sigma receptors, determined according to Weber et al., Proc. Natl. Acad. Sci. USA 83 (1986), 8784) and in part also for muscarinic receptors, determined according to Watson et al., Pharmacol. Exp. Ther. 237 (1986), 419 and according to Eberlein et al., Trends Pharmacol. Science 10 (1989), 50.

muscarinic receptors [1] = assay: Antagonism of contraction of guinea pig plexus myentericus preparation induced by muscarinic agonists (Kilbinger et al.); conditions: micromolar concentrations
Sigma = Sigma receptor binding, [3H]-DTG (Weber et al.); conditions: for Percentage inhibition: [3H]-DTG
Source text: as §1

muscarinic receptors [2] = assay: Affinity for muscarinic receptors (Watson et al.; Eberlein et al.); assay type: binding
Source text: as §1

M2 = assay: Muscarinic M2 receptor binding, [3H]-AFDX 384
Source text: as §1

[3] = IC 50 for acetylcholine esterase inhibition
[4] = read-out: IC 50 for acetylcholine esterase inhibition

acetylcholine esterase, sequence (P22303 32-614): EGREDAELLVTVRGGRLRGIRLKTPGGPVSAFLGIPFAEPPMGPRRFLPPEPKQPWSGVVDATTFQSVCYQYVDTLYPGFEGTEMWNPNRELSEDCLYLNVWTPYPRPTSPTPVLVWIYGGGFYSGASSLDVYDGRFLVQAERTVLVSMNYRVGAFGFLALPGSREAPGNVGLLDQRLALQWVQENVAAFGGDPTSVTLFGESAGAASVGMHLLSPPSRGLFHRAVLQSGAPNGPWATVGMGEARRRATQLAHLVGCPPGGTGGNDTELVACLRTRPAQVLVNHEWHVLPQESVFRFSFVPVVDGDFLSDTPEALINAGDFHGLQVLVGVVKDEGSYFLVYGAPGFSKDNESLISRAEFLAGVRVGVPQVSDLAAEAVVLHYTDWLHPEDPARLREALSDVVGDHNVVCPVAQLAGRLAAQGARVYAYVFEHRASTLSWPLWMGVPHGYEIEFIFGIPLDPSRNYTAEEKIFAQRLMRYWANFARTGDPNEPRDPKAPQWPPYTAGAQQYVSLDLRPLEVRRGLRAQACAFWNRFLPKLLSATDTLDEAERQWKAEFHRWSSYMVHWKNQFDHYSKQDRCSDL

Compound	IC50 (acetylcholine esterase; [3]) [µM]	LLD (lowest lethal dose) (rat; sc rat) [mg/kg]	IC50 (acetylcholine esterase; [4]) [µM]	further results
CN(C)C(=O)Oc1cccc2c1CC[C@H]1[C@@H]2CCN1CCC1CCCCC1.Cl (racemic) [C, rac-cis-3-(2-cyclohexylethyl)-2,3,3a,4,5,9b-hexahydro-1H-benzo[e]indol-6-yl dimethylcarbamate hydrochloride]	0.016	–	–	LLD (lowest lethal dose) (rat; ip rat): 30 mg/kg
CN(C)C(=O)Oc1cccc2c1CC[C@H]1[C@@H]2CCN1CCCCN1C(=O)c2ccccc2C1=O.Cl (racemic) [D, rac-cis-2,3,3a,4,5,9b-hexahydro-3-(4-phthalimidobutyl)-1H-benzo[e]indol-6-yl dimethylcarbamate hydrochloride]	0.0014	–	–	LLD (lowest lethal dose) (rat; ip rat): 3 mg/kg
CN(C)C(=O)Oc1cccc2c1CC[C@H]1[C@@H]2CCN1CCCCCCN1C(=O)c2ccccc2C1=O.Cl (racemic) [E, rac-cis-2,3,3a,4,5,9b-hexahydro-3-(6-phthalimidohexyl)-1H-benzo[e]indol-6-yl dimethylcarbamate hydrochloride]	0.0004	10	–	–
CN(C)C(=O)Oc1cccc2c1CC[C@H]1[C@@H]2CCN1CCN1CCOCC1.Cl.Cl (racemic) [F, rac-cis-2,3,3a,4,5,9b-hexahydro-3-(2-morpholinoethyl)-1H-benzo[e]indol-6-yl dimethylcarbamate dihydrochloride]	0.108	30	–	–
CCCN1CC[C@@H]2c3c(cccc3OC(=O)N(C)C)CC[C@@H]21 (racemic) [G, rac-cis-2,3,3a,4,5,9b-hexahydro-3-propyl-1H-benzo[e]indol-9-yl dimethylcarbamate]	–	–	0.35	LLD (lowest lethal dose) (mouse): 125 mg/kg
CCCN1C[C@@H](C)[C@@H]2c3cccc(OC(=O)N(C)C)c3CC[C@@H]21 (relative stereo) [H, rac-2,3,3aα,4,5,9bα-hexahydro-1α-methyl-3-propyl-1H-benzo[e]indol-6-yl dimethylcarbamate]	–	100	0.488	–
CCNC(=O)Oc1cccc2c1CC[C@H]1[C@@H]2CCN1CCC1CCCCC1 (single isomer, unassigned) [(+)-cis-3-(2-cyclohexylethyl)-2,3,3a,4,5,9b-hexahydro-1H-benzo[e]indol-6-yl ethylcarbamate]	–	–	2.46	–
CCN(C)C(=O)Oc1cccc2c1CC[C@H]1[C@@H]2CCN1CCC1CCCCC1 (single isomer, unassigned) [(+)-cis-3-(2-cyclohexylethyl)-2,3,3a,4,5,9b-hexahydro-1H-benzo[e]indol-6-yl ethylmethylcarbamate]	–	–	0.0035	–
CNC(=O)Oc1cccc2c1CC[C@H]1[C@@H]2CCN1CCC1CCCCC1 (single isomer, unassigned) [(+)-cis-3-(2-cyclohexylethyl)-2,3,3a,4,5,9b-hexahydro-1H-benzo[e]indol-6-yl methylcarbamate]	–	–	0.018	–
CCCNC(=O)Oc1cccc2c1CC[C@H]1[C@@H]2CCN1CCC1CCCCC1 (single isomer, unassigned) [(+)-cis-3-(2-cyclohexylethyl)-2,3,3a,4,5,9b-hexahydro-1H-benzo[e]indol-6-yl propylcarbamate]	–	–	0.0026	–
CN(C)C(=O)Oc1cccc2c1CC[C@H]1[C@H]2CCN1CCC1CCCCC1 (single isomer, unassigned) [(+)-trans-3-(2-cyclohexylethyl)-2,3,3a,4,5,9b-hexahydro-1H-benzo[e]indol-6-yl dimethylcarbamate]	–	–	0.022	–
CN(C)C(=O)Oc1cccc2c1CC[C@H]1[C@@H]2CCN1CCC1CCCCC1.Cl (single isomer, unassigned) [A, (+)-cis-3-(2-cyclohexylethyl)-2,3,3a,4,5,9b-hexahydro-1H-benzo[e]indol-6-yl dimethylcarbamate hydrochloride]	0.022	30	–	Percentage inhibition (M1; 10^-5 M): 87.9%; Percentage inhibition (M1; 10^-7 M): 2.2%; antagonism of contraction induced by muscarinic agonists (in words) (muscarinic receptors [1]): in micromolar concentrations it antagonizes a contraction of a preparation of guinea pig plexus myentericus induced by muscarinic agonists; affinity for sigma receptors (in words) (Sigma): affinity to sigma receptors; Percentage inhibition (Sigma; 10^-5 M): 100.7%; Percentage inhibition (Sigma; 10^-7 M): 62.1%; affinity for muscarinic receptors (in words) (muscarinic receptors [2]): preferential affinity for muscarinic receptors of the M2 type; Percentage inhibition (M2; [3H]-AFDX 384, 10^-5 M): 94.8%; Percentage inhibition (M2; [3H]-AFDX 384, 10^-7 M): 31.3%
CN(C)C(=O)Oc1cccc2c1CC[C@H]1[C@@H]2CCN1CCC1CCCCC1 (single isomer, unassigned) [B, (-)-cis-3-(2-cyclohexylethyl)-2,3,3a,4,5,9b-hexahydro-1H-benzo[e]indol-6-yl dimethylcarabamate hydrochloride]	–	30	0.03	–

From patent US5318967A, “2,3,3a,4,5,9b-hexahydro-1H-benzo[e]indole derivatives” (priority 1991, dated 1994)
